Molecular target: T1, GLP-1R (Homo sapiens, UniProt P43220)
T1 construct: host or cells: GLP-1R CRE-bla CHO-K1 cells
Test: EC20 GLP-1(9-36) PAM cAMP assay: dose response of compound in the presence of fixed concentration of GLP-1(9-36)
Type: cell-based
Settings: GLP-1R CRE-bla CHO-K1 cells, compound dose response with fixed concentration of GLP-1(9-36), read-out: EC20 GLP-1(9-36) PAM EC50
Outline: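 GLP-1R CRE-bla CHO-K1 cells treated 30 min at 37 °C with 12-point compound dose response plus fixed EC20 GLP-1(9-36), with IBMX, in HBSS/HEPES/0.1% BSA pH 7.4. Total cAMP measured by luminescent detection against standard curve; EC50 and Emax from non-linear regression.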

T1 sequence (P43220 24-463): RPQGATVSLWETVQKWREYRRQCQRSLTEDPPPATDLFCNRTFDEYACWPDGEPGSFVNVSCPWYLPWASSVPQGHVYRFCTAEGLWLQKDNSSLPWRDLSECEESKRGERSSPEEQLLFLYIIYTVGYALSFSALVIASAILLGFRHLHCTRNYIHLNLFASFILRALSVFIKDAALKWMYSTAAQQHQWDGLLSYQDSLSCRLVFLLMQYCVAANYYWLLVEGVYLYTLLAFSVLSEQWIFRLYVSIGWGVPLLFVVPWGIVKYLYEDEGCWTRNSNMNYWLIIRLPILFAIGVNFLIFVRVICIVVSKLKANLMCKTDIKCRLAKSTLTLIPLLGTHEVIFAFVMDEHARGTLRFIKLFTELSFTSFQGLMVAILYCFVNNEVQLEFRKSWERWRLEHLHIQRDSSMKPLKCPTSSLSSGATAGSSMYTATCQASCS
T1 sequence (P01275 100-127 partner limits assumed): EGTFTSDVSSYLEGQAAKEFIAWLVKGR

| EC50 | SMILES |
| --- | --- |
| 800 to 2500 nM | CCC[C@H]1CC[C@H](C2CCN(c3cnc(-c4ccc(C[C@H](NC(=O)c5ccc(C)cc5)C(=O)N5CC(C(=O)O)C5)cc4)nc3)CC2)CC1 [Compound 1528] |
| 800 to 2500 nM | CCc1ccc(C(=O)N[C@@H](Cc2ccc(-c3ncc(-c4ccc([C@H]5CC[C@H](CC)CC5)cc4)cn3)cc2)C(=O)O)cc1 [Compound 1370] |
| 800 to 2500 nM | CC(C)CCCOc1ccc(-c2cnc(-c3ccc(C[C@H](NC(=O)c4ccc(C(C)C)cc4)C(=O)N4CC(C(=O)O)C4)cc3)nc2)cc1 [Compound 1227] |
| 800 to 2500 nM | C[C@@H](NC(=O)[C@H](Cc1ccc(-c2ncc(/C=C/c3cc(C(F)(F)F)cc(C(F)(F)F)c3)cn2)cc1)NC(=O)c1ccc(C(C)(C)C)s1)C(=O)O [Compound 1261] |
| 800 to 2500 nM | CC[C@H]1CC[C@H](c2ccc(-c3cnc(-c4ccc(C[C@H](NC(=O)c5ccc(C(F)(F)F)s5)C(=O)O)cc4)nc3)cc2)CC1 [Compound 1369] |
| < 800 nM | CCCc1ccc(-c2ccc(-c3cnc(-c4ccc(C[C@H](NC(=O)c5ccc(C(C)(C)C)s5)C(=O)N5CC(C(=O)O)C5)cc4)nc3)c(F)c2)cc1 [Compound 1208] |
| < 800 nM | CC(=O)c1ccc(-c2ccc(-c3cnc(-c4ccc(C[C@H](NC(=O)c5ccc(C(C)(C)C)s5)C(=O)N[C@H](C)C(=O)O)cc4)nc3)cc2)cc1 [Compound 1292] |
| 800 to 2500 nM | CC[C@H]1CC[C@H](c2ccc(-c3cnc(-c4ccc(C[C@H](NC(=O)c5ccc(OC(C)C)cc5)C(=O)O)cc4)nc3)cc2)CC1 [Compound 1382] |
| 800 to 2500 nM | CC(C)CCCOc1ccc(-c2cnc(-c3ccc(C[C@H](NC(=O)c4ccc(OC(C)C)cc4)C(=O)N4CC(C(=O)O)C4)cc3)nc2)cc1 [Compound 1238] |
| < 800 nM | CCC[C@H]1CC[C@H](C2CCN(c3cnc(-c4ccc(CC(NC(=O)c5ccc(C(C)(C)C)s5)C(=O)NS(=O)(=O)C(F)(F)F)cc4)nc3)CC2)CC1 (stereo partly shown) [Compound 1549] |

| SMILES | EC50 |
| --- | --- |
| CCC[C@H]1CC[C@H](C2CCN(c3cnc(-c4ccc(C[C@H](NC(=O)c5ccc(C(C)(C)C)s5)C(=O)N5C6CCC5[C@@H](C(=O)O)C6)cc4)nc3)CC2)CC1 (stereo partly shown) [Compound 1448] | 5000 to 10000 nM |

Same assay, conditions: dose response of compound in presence of fixed concentration of GLP-1(9-36), GLP-1R CRE-bla CHO-K1 cells, read-out: EC20 GLP-1(9-36) PAM EC50

| EC50 | SMILES |
| --- | --- |
| < 800 nM | CCCCCCCOc1ccc(-c2cnc(-c3ccc(C[C@H](NC(=O)c4ccc(C(C)(C)C)s4)C(=O)NC4CC(C(=O)O)C4)cc3)nc2)cc1 (stereo partly shown) [Compound 602] |
| 800 to 2500 nM | CCCCCCCOc1ccc(-c2cnc(-c3ccc(C[C@H](NC(=O)c4ccc(C(C)(C)C)cc4)C(=O)NC(CC(=O)O)c4ccc(OC)cc4)cc3)nc2)cc1 (stereo partly shown) [Compound 552] |
| 800 to 2500 nM | CCCCCCCOc1ccc(-c2cnc(-c3ccc(C[C@H](NC(=O)c4ccc(C(C)(C)C)s4)C(=O)NC(C(=O)O)C(O)C(F)(F)F)cc3)nc2)cc1 (stereo partly shown) [Compound 882] |
| < 800 nM | CCCCCCCOc1ccc(-c2cnc(-c3ccc(C[C@H](NC(=O)c4ccc(C(C)(C)C)s4)C(=O)N4CC(C(=O)O)C4)cc3)nc2)cc1 [Compound 635, (S)-1-(2-(5-(tert-butyl)thiophene-2-carboxamido)-3-(4-(5-(4-(heptyloxy)phenyl)pyrimidin-2-yl)phenyl)propanoyl)azetidine-3-carboxylic acid] |
| < 800 nM | CCCCCCCOc1ccc(-c2cnc(-c3ccc(C[C@H](NC(=O)c4ccc(C(C)(C)C)s4)C(=O)N[C@@H](c4n[nH]c(=S)o4)[C@@H](C)O)cc3)nc2)cc1 [Compound 895] |
| 800 to 2500 nM | CCCCCCCOc1ccc(-c2cnc(-c3ccc(C[C@H](NC(=O)c4ccc(CCC)s4)C(=O)NC(C(=O)O)C(O)c4ccccc4)cc3)nc2)cc1 (stereo partly shown) [Compound 959] |
| 800 to 2500 nM | CCCCCCCOc1ccc(-c2cnc(-c3ccc(C[C@H](NC(=O)c4ccc(C(C)(C)C)cc4)C(=O)N[C@@H](CCCN)C(=O)O)cc3)nc2)cc1 [Compound 469] |
| 5000 to 10000 nM | CCCCCCCOc1ccc(-c2cnc(-c3ccc(C[C@H](NC(=O)c4ccc(C(C)(C)C)s4)C(=O)NC(C(=O)O)C(O)C(C)(C)C)cc3)nc2)cc1 (stereo partly shown) [Compound 918] |
| 800 to 2500 nM | CCCCCCCOc1ccc(-c2cnc(-c3ccc(CC(NC(=O)c4ccc(C(C)(C)C)s4)C(=O)Nc4cccc(C(=O)O)c4)cc3)nc2)cc1 (stereo not shown) [Compound 441] |
| 800 to 2500 nM | CCCCCCCOc1ccc(-c2cnc(-c3ccc(C[C@H](NC(=O)c4ccc(C(C)(C)C)s4)C(=O)N[C@H](C)C(=O)O)cc3)nc2)c(C)c1 [Compound 790] |
| < 800 nM | CC(C)CCCCOc1ccc(-c2cnc(-c3ccc(C[C@H](NC(=O)c4ccc(C(C)(C)C)s4)C(=O)N4CC(C(=O)O)C4)cc3)nc2)cc1 [Compound 795] |
| 2500 to 5000 nM | C[C@@H](NC(=O)[C@H](Cc1ccc(-c2ncc(-c3ccc4c(ccn4S(=O)(=O)c4ccccc4)c3)cn2)cc1)NC(=O)c1ccc(C(C)(C)C)s1)C(=O)O [Compound 1010] |
| < 800 nM | CCCCCCCOc1ccc(-c2cnc(-c3ccc(C[C@H](NC(=O)c4ccc(C(C)(C)C)cc4)C(=O)N4C[C@H](O)C[C@H]4C(=O)O)cc3)nc2)cc1 [Compound 491] |
| 800 to 2500 nM | CCCCCCCOc1ccc(-c2cnc(-c3ccc(C[C@H](NC(=O)c4ccc(OC)cc4)C(=O)N4CC(C(=O)O)C4)cc3)nc2)cc1 [Compound 1109] |
| 800 to 2500 nM | CCOc1ccc(-c2cnc(-c3ccc(C[C@H](NC(=O)c4ccc(C(C)(C)C)cc4)C(=O)N[C@H](C)C(=O)O)cc3)nc2)cc1 [Compound 721] |
| < 800 nM | CCCCCCCOc1ccc(-c2cnc(-c3ccc(CC(NC(=O)c4ccc(C(C)(C)C)s4)C(=O)N[C@H](C(=O)O)[C@@H](C)CC)cc3)nc2)cc1 (stereo partly shown) [Compound 414] |
| < 800 nM | CC(C)[C@H]1CC[C@@H](c2ccc(-c3cnc(-c4ccc(C[C@H](NC(=O)c5ccc(C(C)(C)C)s5)C(=O)N5CC(C(=O)O)C5)cc4)nc3)cc2)CC1 [Compound 1179] |
| 2500 to 5000 nM | CCCCCCCOc1ccc(-c2cnc(-c3ccc(C[C@H](NC(=O)c4ccc(C(C)(C)C)s4)C(=O)N[C@@H](C(=O)O)[C@H](C)O)cc3)nc2)cc1 [Compound 664] |

| EC50 | SMILES |
| --- | --- |
| 2500 to 5000 nM | CCCCCCCOc1ccc(-c2cnc(-c3ccc(C[C@H](NC(=O)c4sc(C(C)(C)C)cc4C)C(=O)N4CC[C@H](C(=O)O)C4)cc3)nc2)cc1 [Compound 866] |
| 800 to 2500 nM | CCCCCCCOc1ccc(-c2cnc(-c3ccc(C[C@H](NC(=O)c4cnn(C(C)(C)C)c4)C(=O)NC(C(=O)O)C(O)c4ccccc4)cc3)nc2)cc1 (stereo partly shown) [Compound 954] |
| 800 to 2500 nM | CCCCCCCOc1ccc(-c2cnc(-c3ccc(C[C@H](NC(=O)c4ccc(C(C)(C)C)s4)C(=O)N[C@@H](C(=O)O)[C@H](O)c4ccccc4)cc3)nc2)cc1 [Compound 666, (2R,3R)-2-((S)-2-(5-(tert-butyl)thiophene-2-carboxamido)-3-(4-(5-(4-(heptyloxy)phenyl)-pyrimidin-2-yl)phenyl)propanamido)-3-hydroxy-3-phenylpropanoic acid] |
| 800 to 2500 nM | CCCCCCCOc1ccc(-c2cnc(-c3ccc(C[C@H](NC(=O)c4ccc(C(C)(C)C)s4)C(=O)N[C@@H](CCN)C(=O)O)cc3)nc2)cc1 [Compound 410, (S)-4-amino-2-((S)-2-(5-(tert-butyl)thiophene-2-carboxamido)-3-(4-(5-(4-(heptyloxy)phenyl)pyrimidin-2-yl)phenyl)propanamido)butanoic acid] |
| 2500 to 5000 nM | CCCCCCCOc1ccc(-c2cnc(-c3ccc(C[C@H](NC(=O)c4ccc(C(C)(C)C)cc4)C(=O)NCCC(=O)O)cc3)nc2)cc1F [Compound 697] |
| < 800 nM | CCCCCCCOc1ccc(-c2cnc(-c3ccc(C[C@H](NC(=O)c4ccc(C(C)(C)C)cc4)C(=O)NC(Cc4cscn4)C(=O)O)cc3)nc2)cc1 (stereo partly shown) [Compound 544] |
| 2500 to 5000 nM | CCCCCCCOc1ccc(-c2cnc(-c3ccc(C[C@H](NC(=O)c4ccc(C(C)(C)C)s4)C(=O)N[C@@H](CN)C(=O)O)cc3)nc2)cc1 [Compound 394] |
| 800 to 2500 nM | CCCCCCCOc1ccc(-c2cnc(-c3ccc(C[C@H](NC(=O)c4ccc(C(C)(C)C)s4)C(=O)NC(C(=O)O)C(O)c4ccc(C#N)cc4)cc3)nc2)cc1 (stereo partly shown) [Compound 911] |
| < 800 nM | CCc1ccc(C(=O)N[C@@H](Cc2ccc(-c3ncc(-c4ccc([C@H]5CC[C@H](CC)CC5)cc4)cn3)cc2)C(=O)N2CC(C(=O)O)C2)cc1 [Compound 1168] |
| < 800 nM | CCCCCCCOc1ccc(-c2cnc(-c3ccc(C[C@H](NC(=O)c4ccc(C(C)(C)C)s4)C(=O)N4CCC[C@H]4C(=O)NCC(=O)O)cc3)nc2)cc1 [Compound 493] |
| 800 to 2500 nM | CCCCCCCOc1ccc(-c2cnc(-c3ccc(C[C@H](NC(=O)c4ccc(C5CC5)cc4)C(=O)N[C@H](C)C(=O)O)cc3)nc2)cc1 [Compound 827] |
| 5000 to 10000 nM | COc1ccc(-c2cnc(-c3ccc(C[C@H](NC(=O)c4ccc(C(C)(C)C)cc4)C(=O)N[C@H](C)C(=O)O)cc3)nc2)cc1 [Compound 800] |
| 2500 to 5000 nM | CC(C)(C)c1ccc(C(=O)N[C@@H](Cc2ccc(-c3ncc(-c4ccc(OCC(F)(F)F)cc4)cn3)cc2)C(=O)NC(C(=O)O)C(O)c2ccccc2)s1 (stereo partly shown) [Compound 928] |
| 800 to 2500 nM | CCCCCCCOc1ccc(-c2cnc(-c3ccc(C[C@H](NC(=O)c4ccc5c(c4)OCCO5)C(=O)N[C@H](C)C(=O)O)cc3)nc2)cc1 [Compound 980] |
| < 800 nM | CCCCCCCOc1ccc(-c2cnc(-c3ccc(C[C@H](NC(=O)c4ccc(C(C)(C)C)cc4)C(=O)N4CC(O)CC(C(=O)O)C4)cc3)nc2)cc1 (stereo partly shown) [Compound 662] |
| < 800 nM | CCCCCCCOc1ccc(-c2cnc(-c3ccc(C[C@H](NC(=O)c4ccc(C(C)(C)C)cc4)C(=O)N[C@@H](CC(=O)NC)C(=O)O)cc3)nc2)cc1 [Compound 477, N^2—((S)-2-(4-(tert-butyl)benzamido)-3-(4-(5-(4-(heptyloxy)phenyl)pyrimidin-2-yl)phenyl)propanoyl)-N^4-methyl-L-asparagine] |
| < 800 nM | CC(C)(C)c1ccc(C(=O)N[C@@H](Cc2ccc(-c3ncc(-c4ccc(-c5ccc(Cl)cc5)cc4F)cn3)cc2)C(=O)N2CC(C(=O)O)C2)s1 [Compound 1190] |

From US10034886B2, “GLP-1 receptor modulators” (Celgene International II SÀRL, priority 2014, dated 2018)
